Biological target: T1, Met kinase domain (GST fusion protein) (Homo sapiens, UniProt P08581)
T1 construct: Purified GST fusion protein containing the Met kinase domain
Test: Met transphosphorylation assay (ELISA, poly(glu-tyr) substrate);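 further: Cell-free ELISA with plate-bound poly(Glu:Tyr 4:1) phosphorylated by GST-fused Met kinase domain plus ATP and Mn2+, phosphotyrosine detected by anti-phosphotyrosine antibody with HRP and ABTS read-out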
Assay type: biochemical
Details: Met IC50

T1 sequence (P08581 1078-1345 limits assumed): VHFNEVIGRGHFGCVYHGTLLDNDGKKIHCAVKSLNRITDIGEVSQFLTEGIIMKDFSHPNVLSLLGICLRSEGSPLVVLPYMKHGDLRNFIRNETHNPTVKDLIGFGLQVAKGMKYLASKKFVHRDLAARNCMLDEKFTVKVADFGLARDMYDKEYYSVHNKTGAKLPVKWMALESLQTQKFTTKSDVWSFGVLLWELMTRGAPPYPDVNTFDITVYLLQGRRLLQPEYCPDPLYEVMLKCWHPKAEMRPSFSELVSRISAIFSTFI

Structure (SMILES) | IC50
N#Cc1ccccc1COc1cc(-c2ccccc2)cnc1N [Example I-97, 2-(2-Amino-5-phenyl-pyridin-3-yloxymethyl)-benzonitrile] | 12200 nM

Same assay, conditions: read-out: Met IC50

Structure (SMILES) | IC50
CC(=O)N1CCN(Cc2c[nH]c3ccc(-c4cnc(N)c(OCc5c(Cl)cccc5Cl)c4)cc23)CC1 [Example I-68, 1-(4-{5-[6-Amino-5-(2,6-dichloro-benzyloxy)-pyridin-3-yl]-1H-indol-3-ylmethyl}-piperazin-1-yl)-ethanone] | 2180 nM
CC(=O)N1CCN(Cc2c[nH]c3ccc(-c4cnc(N)c(OCc5c(F)ccc(F)c5Cl)c4)cc23)CC1 [Example I-70, 1-(4-{5-[6-Amino-5-(2-chloro-3,6-difluoro-benzyloxy)-pyridin-3-yl]-1H-indol-3-ylmethyl}-piperazin-1-yl)-ethanone] | 800 nM
C[C@@H]1CN(Cc2c[nH]c3ccc(-c4cnc(N)c(OCc5c(F)ccc(F)c5Cl)c4)cc23)C[C@H](C)O1 [Example I-71, 3-(2-Chloro-3,6-difluoro-benzyloxy)-5-[3-(2,6-dimethyl-morpholin-4-ylmethyl)-1H-indol-5-yl]-pyridin-2-ylamine] | 2710 nM
CC(=O)N[C@H]1CCN(Cc2c[nH]c3ccc(-c4cnc(N)c(OCc5c(F)ccc(F)c5Cl)c4)cc23)C1 [Example I-72, N-(1-{5-[6-Amino-5-(2-chloro-3,6-difluoro-benzyloxy)-pyridin-3-yl]-1H-indol-3-ylmethyl}-(3S)-pyrrolidin-3-yl)-acetamide] | 950 nM
Nc1ncc(-c2ccc3[nH]cc(CN4CCCCC4)c3c2)cc1OCc1c(F)ccc(F)c1Cl [Example I-73, 3-(2-Chloro-3,6-difluoro-benzyloxy)-5-(3-piperidin-1-ylmethyl-1H-indol-5-yl)-pyridin-2-ylamine] | 740 nM
Nc1ncc(-c2ccc3[nH]cc(CN4CCOCC4)c3c2)cc1OCc1c(F)ccc(F)c1Cl [Example I-74, 3-(2-Chloro-3,6-difluoro-benzyloxy)-5-(3-morpholin-4-ylmethyl-1H-indol-5-yl)-pyridin-2-ylamine] | 1400 nM
Nc1ncc(-c2ccc3[nH]cc(CN4CCCC4)c3c2)cc1OCc1c(F)ccc(F)c1Cl [Example I-75, 3-(2-Chloro-3,6-difluoro-benzyloxy)-5-(3-pyrrolidin-1-ylmethyl-1H-indol-5-yl)-pyridin-2-ylamine] | 700 nM
CCOC(=O)c1cc2cc(-c3cnc(N)c(OCc4c(Cl)cccc4Cl)c3)ccc2[nH]1 [Example I-76, 5-[6-Amino-5-(2,6-dichloro-benzyloxy)-pyridin-3-yl]-1H-indole-2-carboxylic acid ethyl ester] | > 20000 nM
Nc1ncc(-c2ccc3[nH]c(C(=O)O)cc3c2)cc1OCc1c(Cl)cccc1Cl [Example I-77, 5-[6-Amino-5-(2,6-dichloro-benzyloxy)-pyridin-3-yl]-1H-indole-2-carboxylic acid] | 1620 nM
CN1CCN(C(=O)c2cc3cc(-c4cnc(N)c(OCc5c(Cl)cccc5Cl)c4)ccc3[nH]2)CC1 [Example I-78] | 180 nM
CN(C)[C@@H]1CCN(C(=O)c2cc3cc(-c4cnc(N)c(OCc5c(Cl)cccc5Cl)c4)ccc3[nH]2)C1 [Example I-79, {5-[6-Amino-5-(2,6-dichloro-benzyloxy)-pyridin-3-yl]-1H-indol-2-yl}-[(3R)-3-dimethylamino-pyrrolidin-1-yl]-methanone] | 180 nM
Nc1ncc(-c2ccc3[nH]c(C(=O)N4CCC[C@@H]4CN4CCCC4)cc3c2)cc1OCc1c(Cl)cccc1Cl [Example I-80, {5-[6-Amino-5-(2,6-dichloro-benzyloxy)-pyridin-3-yl]-1H-indol-2-yl}-[(2R)-2-pyrrolidin-1-ylmethyl-pyrrolidin-1-yl]-methanone] | 79 nM
Nc1ncc(-c2ccc3[nH]c(C(=O)NCCN4CCCC4)cc3c2)cc1OCc1c(Cl)cccc1Cl [Example I-81, 5-[6-Amino-5-(2,6-dichloro-benzyloxy)-pyridin-3-yl]-1H-indole-2-carboxylic acid (2-pyrrolidin-1-yl-ethyl)-amide] | 1200 nM
Nc1ncc(-c2ccc3[nH]c(C(=O)NCCN4CCOCC4)cc3c2)cc1OCc1c(Cl)cccc1Cl [Example I-82, 5-[6-Amino-5-(2,6-dichloro-benzyloxy)-pyridin-3-yl]-1H-indole-2-carboxylic acid (2-morpholin-4-yl-ethyl)-amide] | 1800 nM
CC(C)(C)OC(=O)N[C@H]1CCN(C(=O)c2cc3cc(-c4cnc(N)c(OCc5c(Cl)cccc5Cl)c4)ccc3[nH]2)C1 [Example I-83, (1-{5-[6-Amino-5-(2,6-dichloro-benzyloxy)-pyridin-3-yl]-1H-indole-2-carbonyl}-- (3S)-pyrrlidin-3-yl)-carbamic acid tert-butyl ester] | 5000 nM
Nc1ncc(-c2ccc3[nH]c(C(=O)N4CC[C@H](N)C4)cc3c2)cc1OCc1c(Cl)cccc1Cl [Example I-84, {5-(6-Amino-5-(2,6-dichloro-benzyloxy)-pyridin-3-yl]-1H-indol-2-yl}-[(3S)-amino-pyrrolidin-1-yl]-methanone] | 140 nM
Nc1ncc(-c2ccc3[nH]c(C(=O)NCC(O)CN4CCCC4)cc3c2)cc1OCc1c(Cl)cccc1Cl (stereo not shown) [Example I-85, 5-[6-Amino-5-(2,6-dichloro-benzyloxy)-pyridin-3-yl]-1H-indole-2-carboxylic acid (2-hydroxy-3-pyrrolidin-1-yl-propyl)-amide] | 700 nM
Nc1ncc(-c2ccc(O)cc2)cc1OCc1ccccc1 [Example I-86, 4-(6-Amino-5-benzyloxy-pyridin-3-yl)-phenol] | 8700 nM
Nc1ncc(-c2ccccc2)cc1OCc1ccc(F)cc1Cl [Example I-89, 3-(2-Chloro-4-fluoro-benzyloxy)-5-phenyl-pyridin-2-ylamine] | 17000 nM

Structure (SMILES) | IC50
Nc1ncc(-c2ccccc2)cc1OCc1cc(C(F)(F)F)ccc1Cl [Example I-92, 3-(2-Chloro-5-trifluoromethyl-benzyloxy)-5-phenyl-pyridin-2-ylamine] | > 20000 nM
Nc1ncc(-c2ccccc2)cc1OCc1cc(F)c(Cl)cc1Cl [Example I-93, 3-(2,4-Dichloro-5-fluoro-benzyloxy)-5-phenyl-pyridin-2-ylamine] | > 20000 nM
Nc1ncc(-c2ccccc2)cc1OCc1cccc(C(F)(F)F)c1Cl [Example I-94, 3-(2-Chloro-3-trifluoromethyl-benzyloxy)-5-phenyl-pyridin-2-ylamine] | > 20000 nM
Nc1ncc(-c2ccccc2)cc1OCc1c(F)ccc(F)c1Cl [Example I-95, 3-(2 Chloro-3,6-difluoro-benzyloxy)-5-phenyl-pyridin-2-ylamine] | 640 nM
Nc1ncc(-c2ccccc2)cc1OCc1ccc(Cl)c(Cl)c1 [Example I-96, 3-(3,4-Dichloro-benzyloxy)-5-phenyl-pyridin-2-ylamine] | 16200 nM
Cc1ccc(F)c(COc2cc(-c3ccccc3)cnc2N)c1Cl [Example I-98, 3-(2-Chloro-6-fluoro-3-methyl-benzyloxy)-5-phenyl-pyridin-2-ylamine] | 7600 nM
Nc1ncc(-c2ccccc2)cc1OCc1c(F)ccc(F)c1F [Example I-99, 5-Phenyl-3-(2,3,6-trifluoro-benzyloxy)-pyridin-2-ylamine] | 3900 nM
Nc1ncc(-c2ccccc2)cc1OCc1c(F)cccc1F [Example I-100, 3-(2,6-Difluoro-benzyloxy)-5-phenyl-pyridin-2-ylamine] | 9300 nM
Cc1ccc(F)c(COc2cc(-c3ccccc3)cnc2N)c1F [Example I-101, 3-(2,6-Difluoro-3-methyl-benzyloxy)-5-phenyl-pyridin-2-ylamine] | 12000 nM
Nc1ncc(-c2ccccc2)cc1OCc1c(F)ccc(Cl)c1F [Example I-102, 3-(3-Chloro-2,6-difluoro-benzyloxy)-5-phenyl-pyridin-2-ylamine] | 9600 nM
Nc1ncc(-c2ccccc2)cc1OCc1c(F)cccc1Cl [Example I-103, 3-(2-Chloro-8-fluoro-benzyloxy)-5-phenyl-pyridin-2-ylamine] | 7910 nM
COc1ccc(COc2cc(-c3ccccc3)cnc2N)cc1F [Example I-104, 3-(3-Fluoro-4-methoxy-benzyloxy)-5-phenyl-pyridin-2-ylamine] | 15000 nM
CS(=O)(=O)Nc1cccc(COc2cc(-c3ccccc3)cnc2N)c1 [Example I-105, N-[3-(2-Amino-5-phenyl-pyridin-3-yloxymethyl)-phenyl]-methanesulfonamide] | > 20000 nM
Nc1ncc(-c2ccc(OCCN3CCOCC3)cc2)cc1OCc1cccc([N+](=O)[O-])c1 [Example I-106, 5-[4-(2-morpholin-4-yl-ethoxy)-phenyl]-3-(3-nitro-benzyloxy)-pyridin-2-ylamine] | 12600 nM
Nc1ncc(-c2ccc(OCCN3CCOCC3)cc2)cc1OCc1cccc2ccccc12 [Example I-107, 5-[4-(2-Morpholin-4-yl-ethoxy)-phenyl]-3-(naphthalen-1-ylmethoxy)-pyridin-2-ylamine] | 7700 nM
Nc1ncc(-c2ccc(OCCN3CCOCC3)cc2)cc1OCc1c(F)ccc(F)c1Cl [Example I-108, 3-(2-Chloro-3,6-difluoro-benzyloxy)-5-[4-(2-morpholin-4-yl-ethoxy)-phenyl]-pyridin-2-ylamine] | 210 nM
CC(C)c1ccc(NC(=O)C(Oc2cc(-c3ccc(OCCN4CCOCC4)cc3)cnc2N)c2ccccc2)cc1 (stereo not shown) [Example I-109, 2-{2-Amino-5-[4-(2-morpholin-4-yl-ethoxy)-phenyl]-pyridin-3-yloxy}-N-(4-isopropyl-phenyl)-2-phenyl-acetamide] | > 20000 nM
Nc1ncc(-c2ccc(OCCN3CCOCC3)cc2)cc1OCc1csc2ccc(Cl)cc12 [Example I-110, 3-(5-Chloro-benzo[b]thiophen-3-ylmethoxy)-5-[4-(2-morpholin-4-yl-ethoxy)-phenyl]-pyridin-2-ylamine] | 2400 nM

Same assay, conditions: read-out: Met inhibition (printed in the Met IC50 column)

Structure (SMILES) | inhibition at 20 µM
Nc1ncc(-c2ccccc2)cc1OCc1ccccc1Cl [Example I-90, 3-(2-Chloro-benzyloxy)-5-phenyl-pyridin-2-ylamine] | 48%
Nc1ncc(-c2ccccc2)cc1OCc1cc(Cl)ccc1Cl [Example I-91, 3-(2,5-Dichloro-benzyloxy)-5-phenyl-pyridin-2-ylamine] | 48%
